Assay results reported in patent US7351874B2, “Mouse model for fatty acid amide-related neurobehaviors” (The Scripps Research Institute, priority 2001, dated 2008).
“Also recorded” adds a separate entry of the source.

Legend:
[1] = tested on: FAAH−/− and FAAH+/+ mice; assay: Locomotor activity (hypomotility), grid crossings 15 to 20 min post-injection; format: in vivo, mouse
Procedure: (§1) All drugs were administered intraperitoneal (ip) in a mixture of 1 part ethanol: 1 part EMULPHOR alcohol (GAF Corp.; New York N.Y.): 18 parts saline (10 μl/g body weight), except naloxone was administered ip in saline.
(§2) Locomotor activity was assessed by placing each mouse in a clear plexiglass cage (18×10×8.5 inches; l.w.h) that was marked in 7 cm square grids on the floor of the cage. The number of grids that were traversed by the hind paws was counted from 15 to 20 min post-injection. Nociception was assessed using the tail immersion assay, wherein each mouse was hand-held with approximately 1 cm of the tip of the tail immersed into a water bath maintained at 56.0° C. and the latency for the animal to withdraw its tail was scored. The cutoff was 15 sec, and the data were expressed as the percent maximum possible effect (% MPE), where % MPE=100×{(post-injection latency−pre-injection latency)/(15−pre-injection latency)}. Baseline thermal nociception was also analyzed using the hot plate test, wherein the latency to jump or lick/shake a hind paw was scored.

[2] = tested on: FAAH−/− and FAAH+/+ mice; assay: Tail immersion assay (antinociception); format: in vivo, mouse
Procedure: as §1, §2

[3] = tested on: FAAH−/− and FAAH+/+ mice; assay: Catalepsy bar test; format: in vivo, mouse
Procedure: as §1
(§3) Catalepsy was evaluated using the bar test, in which the front paws of each subject were placed on a rod (0.75 cm diameter) that was elevated 4.5 cm above the surface. Mice that remained motionless with their paws on the bar for 10 sec (with the exception of respiratory movements) were scored as cataleptic. Rectal temperature was determined by inserting a thermocouple probe 1.2 cm into the rectum; the temperature was obtained using a telethermometer. The pre-injection rectal temperatures for FAAH^+/+ (35.6±0.2° C., n=28) and FAAH^−/− mice (35.5±0.1° C., n=30) mice were equivalent. Catalepsy and rectal temperature were assessed at 60 min post-injection unless otherwise indicated.

[4] = tested on: FAAH−/− and FAAH+/+ mice; assay: Rectal temperature (hypothermia); format: in vivo, mouse
Procedure: as §1, §3

[5] = tested on: FAAH−/−, FAAH+/− and FAAH+/+ mice; assay: Hot plate test, response latency before and after treatment; format: in vivo, mouse
Procedure: as §2
To test whether enhanced levels of endogenous anandamide were responsible for the analgesia observed in FAAH^−/− mice, the pain responses of these animals and FAAH^+/+ mice were tested prior to and after treatment with vehicle or with SR141716A.

[6] = tested on: FAAH−/− and FAAH+/+ mice; assay: Neurobehavioral assays taken together (hypomotility, analgesia, catalepsy, hypothermia); format: in vivo, mouse
Procedure: as §1, §2
as §3, with “The pre-injection rectal temperatures for FAAH^+/+ (35.6±0.2° C., n=28) and FAAH^−/− mice (35.5±0.1° C., n=30) mice were equivalent.” left out

[7] = tested on: FAAH−/− mice; assay: Overt cage behavior after anandamide; format: in vivo, mouse
Description: If startled by sound or touch, the knockout mice reacted with brief fits of spastic movement, then quickly reentered a flattened, immobile state. Anandamide-treated FAAH^−/− mice remained immobile for 2 to 4 hr, depending on dose, after which they gradually reinitiated normal cage activities, including movement, rearing, and grooming.

[8] = tested on: FAAH(−/−), FAAH-TG(+) and FAAH(−/−), FAAH-TG(−) mice; assay: Pharmacological effects of anandamide in mice with FAAH expression restricted to the nervous system; format: in vivo, mouse; conditions: 50 mg/kg i.p.
Procedure: Animals were tested at 20 minutes (A) and 60 minute (B and C) following treatment with anandamide. HT−=FAAH(+/−), FAAH-TG(−); KO+=FAAH(−/−), FAAH-TG(+); KO−=FAAH(−/−), FAAH-TG(−).
Exogenously applied and endogenously produced fatty acid amides induce a variety of behavioral effects in mammals, which may reflect either central or peripheral sites of action. In wild type mammals, FAAH is not only expressed in the central and peripheral nervous system, but also in a variety of non-nervous system peripheral tissues, including liver, kidney, and testis. […] To address this issue, the mouse FAAH cDNA was placed under the control of the neural specific enolase (NSE) promoter (Forss-Petter et al. (1990) Neuron 5, 187-197) and this construct was used to generate transgenic mice (mixed background of C57Bl/6 and Balb/c) by pronuclear injection methods following standard literature procedures (Gordon, J. W. (1993) Methods Enzymol. 225, 747-771). These animals were screened by Southern blotting for genomic incorporation of the FAAH gene and multiple FAAH-positive transgenic [FAAH-TG(+)] lines were identified. One of these FAAH-TG(+) lines was then crossed to mice heterozygotic for FAAH deletion [FAAH(+/−) mice]. To create representative mouse genotypes for biochemical and behavioral analysis, the following breeding pairs were set up: FAAH(+/−),FAAH-TG(+)×FAAH(−/−),FAAH-TG(−). […]

[9] = cited from earlier work
[10] = target: T1, fatty acid amide hydrolase (FAAH) (Mus musculus, UniProt O08914); assay: FAAH activity assay, conversion of 14C-labeled substrates by thin layer chromatography; format: biochemical; conditions: pH 7.2
T1 construct: Brain and liver were isolated from homozygous wild type (FAAH^+/+), heterozygous (FAAH^+/−) and homozygous knockout (FAAH^−/−) mice; from tissue; host or cells: mouse brain and liver extracts (129SvJ-C57BL/6 intercross offspring)
T1 sequence (O08914 1-579): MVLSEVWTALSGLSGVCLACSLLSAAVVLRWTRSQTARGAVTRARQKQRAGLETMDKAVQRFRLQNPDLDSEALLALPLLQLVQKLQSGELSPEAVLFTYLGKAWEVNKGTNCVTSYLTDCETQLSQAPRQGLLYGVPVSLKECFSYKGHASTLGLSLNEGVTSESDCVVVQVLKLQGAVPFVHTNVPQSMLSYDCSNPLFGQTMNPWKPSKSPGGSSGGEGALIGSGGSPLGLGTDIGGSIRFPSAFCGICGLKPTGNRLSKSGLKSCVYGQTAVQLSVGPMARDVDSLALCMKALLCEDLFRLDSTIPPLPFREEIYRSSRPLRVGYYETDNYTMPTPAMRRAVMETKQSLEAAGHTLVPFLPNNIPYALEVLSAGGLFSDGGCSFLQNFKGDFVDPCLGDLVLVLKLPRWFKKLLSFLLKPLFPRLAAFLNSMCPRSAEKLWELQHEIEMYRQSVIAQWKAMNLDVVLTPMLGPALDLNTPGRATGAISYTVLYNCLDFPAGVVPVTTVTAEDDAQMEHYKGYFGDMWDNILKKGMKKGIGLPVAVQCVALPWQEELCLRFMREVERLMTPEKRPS
Procedure: The mice also were examined for FAAH enzymatic activity. FAAH activity assays for oleamide and anandamide were measured by following the conversion of ^14C-labeled substrates using a thin layer chromatography assay essentially as described by Patricelli et al. (Biochemistry 38:9804-9812, 1999), except that enzyme assays were conducted at pH 7.2. […] Brain extracts from FAAH^−/− mice hydrolyzed anandamide and oleamide 50 to 100 times more slowly than brain extracts from the homozygous wild type mice.

[11] = FAAH−/− mice, 10 mg/kg, 10 min prior to anandamide 50 mg/kg
[12] = FAAH−/− mice, 50 mg/kg ip, 60 min post-injection

Compound: Cc1c(C(=O)NN2CCCCC2)nn(-c2ccc(Cl)cc2Cl)c1-c1ccc(Cl)cc1 [SR141716A]
- effect of pretreatment on anandamide-induced hypomotility [1, 11]: completely blocked
- effect of pretreatment on anandamide-induced antinociception [2, 11]: completely blocked
- effect of pretreatment on anandamide-induced catalepsy [3, 11]: completely blocked
- effect of pretreatment on anandamide-induced hypothermia [4, 11]: completely blocked
- change of hot plate response latency after treatment ([5]; FAAH+/+ (b22 also FAAH+/−) mice, listed as SR141617A): No significant change from baseline; also recorded: modest increases in their hot plate response latencies that failed to reach significance
- change of hot plate pain response latency after treatment ([5]; FAAH−/− mice): dramatic reduction
- effect of pretreatment on all behavioral effects of anandamide ([6]; FAAH−/− mice, 10 mg/kg ip, 10 min prior to anandamide 50 mg/kg): completely blocked

Compound: CCCCCc1cc(O)c2c(c1)OC(C)(C)[C@@H]1CCC(C)=C[C@@H]21 [THC, (−)-Δ^9-tetrahydrocannabinol]
- dose response profiles in FAAH−/− versus FAAH+/+ mice, all behavioral assays tested ([6]; FAAH−/− and FAAH+/+ mice (Table 2, not given)): nearly identical

Compound: CCCCC/C=C\C/C=C\C/C=C\C/C=C\CCCC(=O)NCCO [anandamide, N-arachidonoyl-ethanolamine]
- reduction in spontaneous activity ([1]; FAAH−/− mice, 50 mg/kg ip): 84±8%
- ED50 ([1]; Mus musculus, ip, read-out: ED50, hypomotility (locomotor activity)): < 6.25 mg/kg
- analgesia in the tail immersion test, maximum possible effect (MPE) ([2]; FAAH−/− mice, 50 mg/kg ip): 89±11%
- ED50 ([2]; Mus musculus, ip, read-out: ED50, antinociception (tail-immersion)): 13 mg/kg
- time by which catalepsy gradually dissipated ([3]; FAAH−/− mice, 50 mg/kg): ≤ 4 h
- time post-treatment of most extreme catalepsy ([3]; FAAH−/− mice, 50 mg/kg): 1 h
- cataleptic behavior in the bar test, share of the test group [3, 12]: 88%
- ED50 ([3]; Mus musculus, CL-11, ip, read-out: ED50, catalepsy): 20 mg/kg
- time at which rectal temperature began to return to wild type values ([4]; FAAH−/− mice, 50 mg/kg): ≤ 4 h
- reduction in rectal temperature [4, 12]: 7.9±0.3 °C
- ED50 ([4]; Mus musculus, ip, read-out: ED50, hypothermia (rectal temperature)): 11 mg/kg
- time at which the behavioral impact was readily detected [7]: within five min of treatment
- time the mice remained immobile ([7]; depending on dose): 2 to 4 h
- behavioral effects in FAAH+/+ mice ([6]; FAAH+/+ mice, 6.25 to 50 mg/kg ip): failed to produce any significant effects
- state of treated FAAH−/− mice 24 hr after treatment ([6]; FAAH−/− mice, 24 hr after treatment): indistinguishable from FAAH^+/+ mice
- behavioral effects in mice expressing FAAH only in the nervous system ([8]; FAAH-TG(+) (KO+) mice, 50 mg/kg): sufficient to block the pharmacological effects; also recorded: dramatically reduced
- behavioral effects in mice lacking FAAH ([8]; FAAH-TG(−) (KO−) mice): displayed significant behavioral effects
- half-life in vivo [9]: on the order of minutes

Compound: C=CCN1CC[C@]23c4c5ccc(O)c4O[C@H]2C(=O)CC[C@@]3(O)[C@H]1C5 [naloxone]
- effect of pretreatment on activity due to anandamide ([6]; FAAH−/− mice, 2 mg/kg ip in saline): failed to reduce any activity

Compound: CCCCCCCC/C=C\CCCCCCCC(N)=O [oleamide]
- hydrolysis by FAAH−/− brain extracts, times more slowly than homozygous wild type brain extracts [10]: 50 to 100 times
